Earlier results on one compound are cited in publication PMC7922224, “Searching for Small Molecules as Antibacterials: Non-Cytotoxic Diarylureas Analogues of Triclocarban” (Antibiotics, 2021).

Some test systems named below: S. aureus ATCC 29213; E. faecalis ATCC 29212; E. coli 25922; P. aeruginosa ATCC 27853; K. pneumoniae ATCC 13883.
Set-up in all cases: method as in earlier work
What all share (conditions): reference antibiotic, values according to CLSI (2012) ref 26; cited from earlier work

As for `CCn1cc(C(=O)O)c(=O)c2cc(F)c(N3CCNCC3)cc21` [NRF, norfloxacin], the “MIC S.a. 29213” value with S. aureus ATCC 29213 is 0.5 to 2 µg/mL. Besides, the “MIC E.f. 29212” value with E. faecalis ATCC 29212 was 2 to 8 µg/mL. Further, in the data set on E. coli 25922, the “MIC E.c. 25922” value was 0.03 to 0.12 µg/mL. In the data set with P. aeruginosa ATCC 27853, the “MIC P. a. 27853” value was 1 to 4 µg/mL. In addition, the “MIC K.p. 13883” value in the data set with K. pneumoniae ATCC 13883 was 0.5 to 1 µg/mL.
